Experimental data as given in patent US4410544A, “Platinum-diamine complexes, a method for the preparation of a medicine using such a platinum-diamine complex for the treatment of malignant tumor in mice” (priority 1978, dated 1983).

Key:
[1] = test system: ependymoblastoma (EM); test: Anti-cancerous activity in mice, ependymoblastoma (EM); format: in vivo, mouse
Description: (§1) An extensive research program carried out by the National Cancer Institute, Bethesda, Md., and the European Organization for Research on the Treatment of Cancer, Brussels, Belgium, has shown that when compared to PDD, compounds according to this invention, particularly compounds having the following formulas display a high therapeutic activity against a great number of different mammalian types of tumor, such as P 388 lymphocytic leukemia (PS), L-1210 lymphoid leukemia (LE), ependymoblastoma (EM), B 16 melanocarcinoma (B1) and a line of L-1210 leukemia resistant to cis-PDD (LE/cis-PDD): [drawing 9]
(§2) More detailed information concerning the testing procedure and their interpretation are contained in Instruction 14, Screening Data Summary, Interpretation and Outline of Current Screen, Drug Evaluation Branch, National Cancer Institute, Bethesda, Md., 20014 (1977) which is incorporated herein by reference.
(§3) *Period of survival is the ratio of survival times of the treated mice (T
(§4) to untreated mice (C); the therapeutic activity is significant at T/C
(§5) ≥ 125. The figures include dying mice only. A cure is defined as a
(§6) mouse free of tumors 45 days after injection, as determined by visual

[2] = Lethal doses LD10 / LD50 given with the BUN test in the rat
[3] = test system: P 388 lymphocytic leukemia (PS); test: Anti-cancerous activity in mice, P 388 lymphocytic leukemia (PS); format: in vivo, mouse; details: CD2 F1 mice
Description: as §1, §2, §3, §4, §5, §6

[4] = test system: L-1210 lymphoid leukemia (LE); test: Anti-cancerous activity in mice, L-1210 lymphoid leukemia (LE); format: in vivo, mouse
Description: as §1, §2, §3, §4, §5, §6
(§7) **For Formula 12-cis PDD the mice were injected with 10^6 L1210
(§8) ascites cells. One I.P. injection of the test compound was given to each

[5] = test system: B 16 melanocarcinoma (B1); test: Anti-cancerous activity in mice, B 16 melanocarcinoma (B1); format: in vivo, mouse; details: B16, B6 D2 (BDF) mice
Description: as §1, §2, §3, §4, §5, §6

[6] = test system: L-1210 leukemia resistant to cis-PDD (LE/cis-PDD); test: Anti-cancerous activity in mice, L-1210 leukemia resistant to cis-PDD (LE/cis-PDD); format: in vivo, mouse; details: for cures (mice free of tumors 45 days after injection) / T/C (period of survival, treated/untreated): LE/cis PDD, BDF1 mice; for cures (mice free of tumors 45 days after injection): of six mice; for T/C (period of survival, treated/untreated): one I.P. injection; for effectiveness against the cis-PDD resistant line of L-1210 versus the parent line: mice
Description: as §1, §2, §3, §4, §5, §6, §7, §8

[7] = literature; cited from earlier work
[8] = literature; cited from earlier work; remark: listed apart in the source
[9] = test system: cancer; details: literature, cited from earlier work
[10] = Urea-nitrogen in the blood after administering platinum complexes (in the rat); format: in vivo
Description: Percentage of urea-nitrogen in the blood after
administering platinum complexes (in the rat).
Both at doses corresponding with the LD10 -amount and at those corresponding with the LD50 -amount the urea-nitrogen contents in the blood are identical to the control values. BUN values≥30 mg% are generally considered indicative of drug-induced nephrotoxicity. […] In was found by means of a histological examination of rats after treatment with toxic doses of compounds of this invention, that these compounds display little or no kidney toxicity.

[11] = test system: mammalian types of tumor; test: Therapeutic activity against mammalian tumors (NCI / EORTC program); format: in vivo, mouse; details: mice; Table A experiments
Description: as §1, §2

[12] = 6.25 mg/kg per injection, significant at T/C ≥ 125
[13] = CD2 F1 mice, 12.50 mg/kg per injection
[14] = BDF1 mice, 50.00 mg/kg, one I.P. injection, 10^6 L1210 ascites cells

NCC1(CN)CCCCC1.[Cl][Pt][Cl] [Formula 4, Cis-dichloro-1,1-di(aminomethyl)cyclohexane platinum(II)]
T/C (period of survival, treated/untreated) ([1]; C57BL/6 mice, 6.00 mg/kg per injection): 126%
LD10 [2]: 8 mg/kg
LD50 [2]: 15 mg/kg
T/C (period of survival, treated/untreated) ([3]; 1.56 mg/kg per injection): 153%
T/C (period of survival, treated/untreated) ([3]; 3.12 mg/kg per injection): 181%
T/C (period of survival, treated/untreated) [3, 12]: 201%
T/C (period of survival, treated/untreated) ([4]; CD2 F1 mice, 3.12 mg/kg per injection): 145%
T/C (period of survival, treated/untreated) ([4]; CD2 F1 mice, 6.25 mg/kg per injection): 180%
T/C (period of survival, treated/untreated) [4, 13]: 234%
T/C (period of survival, treated/untreated) ([5]; 1.50 mg/kg per injection): 190%
T/C (period of survival, treated/untreated) ([5]; 3.00 mg/kg per injection): 208%
T/C (period of survival, treated/untreated) ([5]; 6.00 mg/kg per injection): 208%

NCC1(CN)CCCCC1.O=C1[O][Pt][O]C(=O)C12CCCCC2 [Formula 7, Cis-cyclopentamethylene malonato-1,1-di(aminomethyl)cyclohexane platinum(II)]
T/C (period of survival, treated/untreated) ([1]; 57BL/6 mice, 6.25 mg/kg per injection): 130%
T/C (period of survival, treated/untreated) ([1]; 57BL/6 mice, 12.50 mg/kg per injection): 163%
T/C (period of survival, treated/untreated) [3, 12]: 162%
T/C (period of survival, treated/untreated) ([3]; 12.50 mg/kg per injection): 177%
T/C (period of survival, treated/untreated) ([3]; 25.00 mg/kg per injection): 226%
T/C (period of survival, treated/untreated) ([4]; CD2 F1 mice, 80.00 mg/kg per injection): 138%

CCC(C)(CN)CN.[Cl][Pt][Cl] [Formula 8, Cis-dichloro-(2-methyl-2-ethyl)-1,3-propane diamine platinum (II)]
T/C (period of survival, treated/untreated) [4, 13]: 289%

CCC(CC)(CN)CN.[Cl][Pt][Cl] [Formula 9, Cis-dichloro-2,2-diethyl-1,3-propane diamine platinum(II)]
T/C (period of survival, treated/untreated) [4, 13]: 323%

NCC1(CN)CCCC1.[Cl][Pt][Cl] [Formula 10, Cis-dichloro-1,1-di(aminomethyl)cyclopentane platinum(II)]
T/C (period of survival, treated/untreated) [4, 13]: 148%

NCC1(CN)CCCCC1.O=S(=O)([O-])[O-].[Pt+2] [Formula 11, Cis-1,1-di(aminomethyl)cyclohexane platinum(II) sulphate]
T/C (period of survival, treated/untreated) [4, 13]: 274%

NCC1(CN)CCC1.[Cl-].[Cl-].[Pt+2] [Formula 12, Cis-dichloro-1,1-di(aminomethyl)cyclobutane platinum(II)]
T/C (period of survival, treated/untreated) ([4]; BDF1 mice, 15.00 mg/kg, one I.P. injection, 10^6 L1210 ascites cells): 208%

NCC(CN)(Cc1ccccc1)Cc1ccccc1.[Cl][Pt][Cl] [Formula 13, Cis-dichloro-2,2-dibenzyl-1,3-propane diamine platinum(II)]
T/C (period of survival, treated/untreated) [4, 14]: 135%

CC(C)C(CN)(CN)C(C)C.[Cl-].[Cl-].[Pt+2] [Formula 14, Cis-dichloro-2,2-diisopropyl-1,3-propane diamine platinum(II)]
T/C (period of survival, treated/untreated) [4, 14]: 178%

NCC1(CN)CCCCC1.O=C(O)c1ccc2c(c1)C(=O)[O][Pt][O]C2=O [Formula 15, Cis-4-carboxyphthalato-1,1-di(aminomethyl)-cyclohexane platinum (II)]
T/C (period of survival, treated/untreated) ([4]; BDF1 mice, 40.00 mg/kg, one I.P. injection, 10^6 L1210 ascites cells): 200%

NCC1(CN)CCCCC1.O=C(CCl)[O][Pt][O]C(=O)CCl [Formula 16, Cis-1,1-di(aminomethyl)-cyclohexane-bis(chloroacetato)platinum(II)]
T/C (period of survival, treated/untreated) ([4]; BDF1 mice, 6.00 mg/kg, one I.P. injection, 10^6 L1210 ascites cells): 207%

CCC(CC)(CN)CN.O=S(=O)([O-])[O-].[Pt+2] [Formula 17, Cis-2,2-diethyl-1,3-propanediamine platinum(II) sulphate]
cures (mice free of tumors 45 days after injection) ([6]; 6.00 mg/kg): 3/6
T/C (period of survival, treated/untreated) ([6]; 6.00 mg/kg): > 500%
effectiveness against the cis-PDD resistant line of L-1210 versus the parent line [6]: even more effective against the cis-PDD resistant line of L-1210 than they are against the parent line of L-1210
T/C (period of survival, treated/untreated) ([4]; BDF1 mice, 12.00 mg/kg, one I.P. injection, 10^6 L1210 ascites cells): 200%

NCC1(CN)CCCCC1.O=C([O-])CC(=O)[O-].[Pt+2] [Formula 18, Cis-1,1-di(aminomethyl)-cyclohexanemalonato platinum(II)]
T/C (period of survival, treated/untreated) ([6]; 16.00 mg/kg): 230%
effectiveness against the cis-PDD resistant line of L-1210 versus the parent line [6]: even more effective against the cis-PDD resistant line of L-1210 than they are against the parent line of L-1210
cures (mice free of tumors 45 days after injection) ([4]; BDF1 mice, 64.00 mg/kg, of six mice): 1/6
T/C (period of survival, treated/untreated) ([4]; BDF1 mice, 64.00 mg/kg, one I.P. injection, dying mice only): 200%

NCC1(CN)CCCCC1.O=C1[O][Pt][O]C(=O)C1O [Formula 19, Cis-1,1-di(aminomethyl)cyclohexanehydroxymalonato platinum(II)]
cures (mice free of tumors 45 days after injection) ([6]; 24.00 mg/kg): 3/6
T/C (period of survival, treated/untreated) ([6]; 24.00 mg/kg): > 500%
effectiveness against the cis-PDD resistant line of L-1210 versus the parent line [6]: even more effective against the cis-PDD resistant line of L-1210 than they are against the parent line of L-1210
T/C (period of survival, treated/untreated) ([4]; BDF1 mice, 36.00 mg/kg, one I.P. injection, 10^6 L1210 ascites cells): 246%

cis-dichlorobiscyclopentyl amine platinum(II)
spleen toxicity [7]: toxic to the spleen
kidney toxicity [8]: only slightly toxic to the kidneys

cis-platinum diamine dichloride [PDD]
T/C (period of survival, treated/untreated) ([6]; 4-8 mg/kg): 106-121%
therapeutic index [9]: low therapeutic index
toxicity ([9]; treatment of cancer): Toxicity is a very serious drawback
LD10 [2]: 3 mg/kg
LD50 [2]: 7.6 mg/kg
T/C (period of survival, treated/untreated) ([4]; BDF1 mice, 8.00 mg/kg, one I.P. injection, 10^6 L1210 ascites cells): 183%
Percentage of urea-nitrogen in blood ([10]; 3 mg/kg (LD10), 0 days after injection): 10%
Percentage of urea-nitrogen in blood ([10]; 3 mg/kg (LD10), 2 days after injection): 13%
Percentage of urea-nitrogen in blood ([10]; 3 mg/kg (LD10), 4 days after injection): 52%
Percentage of urea-nitrogen in blood ([10]; 7.6 mg/kg (LD50), 0 days after injection): 10%
Percentage of urea-nitrogen in blood ([10]; 7.6 mg/kg (LD50), 2 days after injection): 78%
Percentage of urea-nitrogen in blood ([10]; 7.6 mg/kg (LD50), 4 days after injection): 148%
increase in the urea nitrogen content ([10]; LD10 dose, 4 days after injection): about a quadruple increase
T/C (period of survival, treated/untreated) ([5]; 2.00 mg/kg per injection): 197%
complete cures [11]: not observed
